Data from US11058673B2, “Dosage regimen of MDM2 inhibitor for treating cancers” (DAIICHI SANKYO COMPANY, LIMITED, priority 2015, dated 2021).
Like-named read-outs stand apart in the source and are kept apart here.

Columns and labels:
[1] = assay type: in vivo, human; conditions: for maximum tolerated dose (MTD): oral
Method: (§1) Dosage regimen Compound 2 was administered as an oral capsule comprising a pharmaceutically acceptable carrier (diluting agent, plasticizer, disintegrator and lubricant). Compound 2 was administered to the subjects once daily on Days 1 to 21 of a 28-day cycle (QD21/28). An alternative drug administration schedule was considered after establishing the maximum tolerated dose (MTD) of Compound 2 in solid tumor and/or lymphoma subjects using the above schedule, and upon review of the human safety. Subjects were administered Compound 2 in fasting conditions by avoiding food for 2 hours before and 1 hour after drug administration. Dose-escalation of Compound 2 to determine the MTD was guided by the modified continuous reassessment method (mCRM) using a Bayesian logistic regression model (BLRM) following escalation with overdose control (EWOC) principle. Dose escalation began in subjects with advanced solid tumors or lymphomas with a starting dose of Compound 2 at 15 mg/day based on the Highest Non-Severely Toxic Dose (HNSTD) of 3 mg/kg in dogs.
Dose Limiting Toxicity Definition A DLT was defined as any treatment-emergent adverse event (TEAE) not attributable to disease or disease-related processes that occurred during the observation period (Cycle 1) in each dose-level cohort and was grade 3 or higher according to NCI CTCAE, version 4. Subjects who were unable to complete at least 75% of the prescribed doses (i.e., 16 days) of Compound 2 in the first 21 days as a result of nondisease-related≥grade 2 adverse event (AE) were considered to have a DLT.
Treatment Arms In this open-label, single-arm, dose escalation study, each subject received Compound 2 orally once daily on Days 1 to 21 of a 28-day cycle.
Safety Parameters The safety profile was based on AEs, physical examination findings, vital sign measurements, clinical laboratory measurements, and ECG recordings. All subjects receiving at least 1 dose of Compound 2 were included in the safety analyses.

[2] = test system: advanced solid tumor or lymphoma; experiment: Phase 1 clinical study: tumor response (RECIST v1.1) and progression free survival, overall population; assay type: in vivo, human
Method: (§2) • 1. Has a histologically or cytologically documented advanced solid tumor or lymphoma that has relapsed from or is refractory to standard treatment, or for which no standard treatment is available. • 2. Man or woman≥18 years old. • 3. Has an Eastern Cooperative Oncology Group (ECOG) performance status 0-1. • 4. Has adequate bone marrow function, adequate renal function, adequate hepatic function, and adequate blood clotting function.
(§3) Tumor assessment Tumor assessment was performed at baseline, within every 2 cycles while the subject remained on study for the first 9 cycles and then every 3 cycles thereafter (start of Cycles 3, 5, 7, and 9, then Cycles 12, 15, etc.).
(§4) Tumor Response Response assessment was performed according to the Schedule of Events or if disease progression was suspected. Radiographic assessment included computerized tomography (CT) of all affected sites. In addition, subjects with lymphoma underwent a (^18F) fluorodeoxyglucose-positron emission tomography FDG-PET scan. Tumor responses were assessed by the physicians according to RECIST 1.1 criteria for subjects with solid tumors and revised IWG criteria for subjects with lymphoma. Descriptive statistics for the greatest percent change in the sum of longest dimensions (SLD) of measurable tumors were provided. A waterfall plot of the greatest percent change from screening in the SLD for each subject was presented for subjects with advanced solid malignancies and lymphomas. In addition, descriptive statistics for FDG-PET scans were provided for lymphoma subjects according to revised IWG criteria.

Liposarcoma = experiment: Phase 1 clinical study: progression free survival, liposarcoma subjects; assay type: in vivo, human; conditions: Liposarcoma (N = 13)
Method: as §2, §3, §4

Non-Liposarcoma = experiment: Phase 1 clinical study: progression free survival, non-liposarcoma subjects; assay type: in vivo, human; conditions: Non-Liposarcoma (N = 14)
Method: as §2, §3, §4

[3] = Highest Non-Severely Toxic Dose in dogs; assay type: in vivo
Method: as §1

[4] = Overall (N = 27), Kaplan-Meier estimate

SMILES: CC1(C)CCC2(CC1)N[C@@H](C(=O)N[C@@H]1CC[C@@H](C(N)=O)OC1)[C@H](c1ccnc(Cl)c1F)[C@]21C(=O)Nc2cc(Cl)ccc21.Cc1ccc(S(=O)(=O)O)cc1 [Compound 2, (3′R,4′S,5′R)—N-[(3R,6S)-6-carbamoyltetrahydro-2H-pyran-3-yl]-6″-chloro-4′-(2-chloro-3-fluoropyridin-4-yl)-4,4-dimethyl-2″-oxo-1″,2″-dihydrodispiro[cyclohexane-1,2′-pyrrolidine-3′,3″-indole]-5′-carboxamide mono(4-methylbenzenesulfonate) monohydrate]
- TEAE anemia ([1]; human, in vivo): 38.2%
- TEAE constipation ([1]; human, in vivo): 23.5
- TEAE decreased appetite ([1]; human, in vivo): 50.0%
- TEAE diarrhea ([1]; human, in vivo): 35.3%
- TEAE dysgeusia ([1]; human, in vivo): 20.6%
- TEAE dyspnoea ([1]; human, in vivo): 26.5%
- TEAE fatigue ([1]; human, in vivo): 52.9%
- TEAE grade 3 or higher in severity ([1]; human, in vivo): 55.9%
- TEAE hyperglycemia ([1]; human, in vivo): 29.4%
- TEAE hypoalbuminemia ([1]; human, in vivo): 32.4%
- TEAE nausea ([1]; human, in vivo): 64.7%
- TEAE neutropenia ([1]; human, in vivo): 17.6%
- TEAE peripheral edema ([1]; human, in vivo): 17.6%
- TEAE thrombocytopenia ([1]; human, in vivo): 32.4%
- TEAE vomiting ([1]; human, in vivo): 35.3%
- Treatment emergent adverse events (TEAE) of any grade at any treatment cycle irrespective of causality ([1]; human, in vivo): 97.1%
- most common drug-related TEAEs ([1]; human, in vivo): hematological (thrombocytopenia, anemia, neutropenia), gastrointestinal (nausea, vomiting and diarrhea), and fatigue
- total subjects who experienced DLTs ([1]; human, in vivo): 6 subjects
- maximum tolerated dose (MTD) ([1]; QD 21/28 schedule): 120 mg
- maximum tolerated dose (MTD) ([1]; QD 28/28 schedule): 90 mg
- dose tolerated ([1]; patients with hematological malignancies): 160 mg
- Subjects without Events (Censored) (%) ([2]; Overall (N = 27)): (55.6) %
- Progression-Free Survival, Median [2, 4]: 5.72 months
- Rate (%) of Being Alive Without Progresion at Least 3 months [2, 4]: 74.5%
- Rate (%) of Being Alive Without Progresion at Least 6 months [2, 4]: 47.4%
- Rate (%) of Being Alive Without Progresion at Least 9 months [2, 4]: 29.7%
- Rate (%) of Being Alive Without Progresion at Least 12 months [2, 4]: 29.7%
- Subjects with Events (%) ([2]; PFS events, Overall (N = 27)): (44.4) %
- subjects with stable disease (SD) as the best tumor response ([2]; RECIST v1.1, out of 23 evaluable subjects): 21 subjects
- subjects with >10% tumor shrinkage ([2]; of 23 evaluable subjects): 3 subjects
- Subjects without Events (Censored) (%) (Liposarcoma): (76.9) %
- Rate (%) of Being Alive Without Progresion at Least 3 months (Liposarcoma; Kaplan-Meier estimate): 91.7%
- Rate (%) of Being Alive Without Progresion at Least 6 months (Liposarcoma; Kaplan-Meier estimate): 76.4%
- Rate (%) of Being Alive Without Progresion at Least 9 months (Liposarcoma; Kaplan-Meier estimate): 57.3%
- Rate (%) of Being Alive Without Progresion at Least 12 months (Liposarcoma; Kaplan-Meier estimate): 57.3%
- Subjects with Events (%) (Liposarcoma; PFS events): (23.1) %
- Subjects without Events (Censored) (%) (Non-Liposarcoma): (35.7) %
- Progression-Free Survival, Median (Non-Liposarcoma; Kaplan-Meier estimate): 4.04 months
- Rate (%) of Being Alive Without Progresion at Least 3 months (Non-Liposarcoma; Kaplan-Meier estimate): 58.4%
- Rate (%) of Being Alive Without Progresion at Least 6 months (Non-Liposarcoma; Kaplan-Meier estimate): 23.4%
- Rate (%) of Being Alive Without Progresion at Least 9 months (Non-Liposarcoma; Kaplan-Meier estimate): 11.7%
- Rate (%) of Being Alive Without Progresion at Least 12 months (Non-Liposarcoma; Kaplan-Meier estimate): 11.7%
- Subjects with Events (%) (Non-Liposarcoma; PFS events): (64.3) %
- Highest Non-Severely Toxic Dose (HNSTD) [3]: 3 mg/kg
